Data as given in patent publication US20180339963A1, “ANTICONVULSANT CARBAMATE DERIVATIVES” (Yissum Research Development Company of the Hebrew …, priority 2017, published 2018).
Where two headings read alike, the source gives them in different places. Marks after values point to notes of the source that are not given here.

Columns and labels:
SWV mice = test: Teratogenicity in the SWV mouse model; format: in vivo; settings: for No. of fetuses with NTDs / No. of implants / No. of live fetuses / No. of resorptions / Fetal weight mean ± SD: day 8.5 of gestation; for Fetal weight mean ± SD: in g (unit assumed); for No. of live fetuses, figure in parentheses / No. of resorptions, figure in parentheses: share of implants; for No. of fetuses with NTDs, figure in parentheses: share of live fetuses
Description: The teratogenic properties of the newly designed compounds (1-10) were evaluated in the highly inbred SWV mice strain known for its high susceptibility to VPA-induced neural tube defects (NTDs). Two month old nulligravid females, were mated overnight with males and examined for the presence of vaginal plugs the following morning, and the onset of gestation was considered to be 10 p.m. of the previous night, the midpoint of the dark cycle. At day 8.5 of gestation, each dam received a single i.p. injection of the test compounds in an equimolar dose of 0.9 or 1.8 mmol/kg and the control dams were injected with vehicle (25% water solution of Cremophore EL, Fluka Biochemica Germany). The volume of injection was 10 μL/g of body weight. […] At gestation day […], the dams were euthanized by carbon dioxide asphyxiation followed by cervical dislocation. After the opening the uterus, the location of all viable fetuses and resorption sites were recorded, and the fetuses were examined for the presence of exencephaly or other gross congenital abnormalities. The teratogenicity data (implantations, resorptions and NTDs) were evaluated for significant differences between the control and treated groups by analyzing the contingency table with Fisher's exact test. Statistical analysis was conducted using GraphPad InStat (version 3.06; GraphPad Software, San Diego, Calif., USA), and the results of all tests were considered to be statistically significant when the p-value was less than 0.05

hCA I = biological target: T1, hCA I (Homo sapiens, UniProt P00915); test: Stopped flow CO2 hydrase assay, hCA I; format: biochemical; settings: mean from 3 assays, read-out: K1, hCAI
T1 construct: made in house
T1 sequence (P00915 whole entry): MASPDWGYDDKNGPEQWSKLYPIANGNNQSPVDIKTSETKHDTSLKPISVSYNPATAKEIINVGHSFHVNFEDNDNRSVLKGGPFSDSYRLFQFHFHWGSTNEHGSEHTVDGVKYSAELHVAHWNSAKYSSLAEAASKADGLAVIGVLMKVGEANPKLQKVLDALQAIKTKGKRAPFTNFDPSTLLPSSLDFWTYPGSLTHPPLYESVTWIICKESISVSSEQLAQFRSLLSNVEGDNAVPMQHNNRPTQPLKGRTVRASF
Description: (§1) An Applied Photophysics stopped-flow instrument has been used for assaying the CA catalysed CO2 hydration activity. Phenol red (at a concentration of 0.2 mM) has been used as indicator, working at the absorbance maximum of 557 nm, with 20 mM Hepes (pH 7.5) as buffer, and 20 mM Na2SO4 (for maintaining constant the ionic strength), following the initial rates of the CA-catalyzed CO2 hydration reaction for a period of 10-100 s. The CO2 concentrations ranged from 1.7 to 17 mM for the determination of the kinetic parameters and inhibition constants. […] The uncatalyzed rates were determined in the same manner and subtracted from the total observed rates. Stock solutions of inhibitor (0.1 mM) were prepared in distilled-deionized water and dilutions up to 0.01 nM were done thereafter with the assay buffer. […] The inhibition constants were obtained by non-linear least-squares methods using PRISM 3 and the Cheng-Prusoff equation, as reported earlier and represent the mean from at least three different determinations. All CA isofoms were recombinant ones obtained in-house.

hCA II = biological target: T2, hCA II (Homo sapiens, UniProt P00918); test: Stopped flow CO2 hydrase assay, hCA II; format: biochemical; settings: mean from 3 assays, read-out: K1, hCA II
T2 construct: made in house
Description: as §1

hCA IV = biological target: T3, hCA IV (Homo sapiens, UniProt P22748); test: Stopped flow CO2 hydrase assay, hCA IV; format: biochemical; settings: mean from 3 assays
T3 construct: made in house
T3 sequence (P22748 19-284): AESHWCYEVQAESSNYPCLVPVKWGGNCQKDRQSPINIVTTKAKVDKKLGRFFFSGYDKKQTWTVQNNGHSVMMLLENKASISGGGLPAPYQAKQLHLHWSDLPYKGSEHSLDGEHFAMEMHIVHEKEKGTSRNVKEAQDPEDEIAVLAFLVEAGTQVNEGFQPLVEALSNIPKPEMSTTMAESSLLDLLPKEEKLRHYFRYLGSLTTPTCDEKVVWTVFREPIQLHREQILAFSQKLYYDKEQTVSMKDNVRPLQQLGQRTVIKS
Description: as §1

hCA VII = biological target: T4, hCA VII (Homo sapiens, UniProt P43166); test: Stopped flow CO2 hydrase assay, hCA VII; format: biochemical; settings: mean from 3 assays, read-out: K1, hCA VII
T4 construct: made in house
T4 sequence (P43166 whole entry): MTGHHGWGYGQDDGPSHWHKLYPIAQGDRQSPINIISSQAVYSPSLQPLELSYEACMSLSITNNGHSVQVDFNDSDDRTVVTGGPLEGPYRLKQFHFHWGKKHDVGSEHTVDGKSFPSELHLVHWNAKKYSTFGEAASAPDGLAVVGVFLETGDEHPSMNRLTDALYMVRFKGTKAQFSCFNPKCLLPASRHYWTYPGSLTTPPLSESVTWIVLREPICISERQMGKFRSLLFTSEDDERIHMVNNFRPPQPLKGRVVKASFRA
Description: as §1

in vivo [1] = settings: male, CF no. 1 albino, mouse, ip
in vivo [2] = settings: Sprague-Dawley, rat
6 Hz psychomotor seizure = 6 Hz psychomotor seizure test in mice; settings: Mus musculus, ip; for responders at 30 mg/kg / responders at 100 mg/kg / responders at 300 mg/kg: read-out: 6 Hz, number of mice protected/number of mice tested
[3] = system: maximal electroshock seizure (MES); test: Maximal electroshock seizure (MES) test in mice; settings: Mus musculus, ip; for responders at 30 mg/kg / responders at 100 mg/kg / responders at 300 mg/kg: read-out: MES, number of mice protected/number of mice tested; for ED50: read-out: MES-ED50, mice, i.p.
[4] = system: maximal electroshock seizure (MES); test: Maximal electroshock seizure (MES) test in rats; settings: for ED50: Rattus norvegicus; for MES-ED50: rats, p.o.
[5] = system: pentylenetetrazol-induced seizure (scMet); test: Subcutaneous metrazol seizure test (scMet) in mice; settings: Mus musculus, ip, read-out: scMet-ED50
[6] = system: pentylenetetrazol-induced seizure (scMet); test: Subcutaneous metrazol seizure test (scMet) in rats; settings: for ED50: Rattus norvegicus, po, read-out: scMet ED50; for scMet ED50: rats, p.o.
mice = test: Neurotoxicity (minimal motor impairment, rotarod) in mice; settings: mice i.p.
corneal kindled mouse = test: Corneal kindled mouse (CKM) model; format: in vivo; settings: ip, mice
[7] = read-out: 6 Hz-ED50, mice, i.p., 32 mA
[8] = po, read-out: MES-ED50, rats, p.o.

## CCC(C)C(C)OC(=O)Nc1ccc(S(N)(=O)=O)cc1 (stereo not shown) [Compound 9, 3-methylpentan-2-yl (4-sulfamoylphenyl)carbamate]
SWV mice
  induction of neural tube defects relative to anticonvulsant effective dose (in words): induced neural tube defects only at doses markedly exceeding their effective dose
SWV mice; single i.p. 0.9 mmol/kg
  No. of fetuses with NTDs: 3
  No. of implants: 126
  No. of live fetuses: 109
  No. of resorptions: 17
  Fetal weight mean ± SD: 0.90 ± 0.07
  No. of live fetuses, figure in parentheses: 86.5%
  No. of resorptions, figure in parentheses: 13.5%
  No. of fetuses with NTDs, figure in parentheses: (2.8)
SWV mice; single i.p. 1.8 mmol/kg
  No. of fetuses with NTDs: 9
  No. of implants: 107
  No. of live fetuses: 49
  No. of resorptions: 58
  Fetal weight mean ± SD: 0.89 ± 0.08
  No. of live fetuses, figure in parentheses: 45.8%
  No. of resorptions, figure in parentheses: 54.2%
  No. of fetuses with NTDs, figure in parentheses: (18.4)*
hCA I
  Ki: 72.9 nM
hCA II
  Ki: 5.4 nM
hCA IV
  K1, hCA IV: medium potency inhibitors
hCA IV; read-out: K1, hCA IV
  Ki: 183 nM
hCA VII
  Ki: 35.5 nM
other
  melting point: 179 to 180 °C
In vivo [1]
  TD50: > 600 mg/kg
In vivo [2]; male, po
  TD50: > 500 mg/kg
6 Hz psychomotor seizure; 0.5 h
  responders at 30 mg/kg: 50%
  responders at 100 mg/kg: 50%
  responders at 300 mg/kg: 100%
6 Hz psychomotor seizure; 2 h
  responders at 30 mg/kg: 0%
  responders at 100 mg/kg: 0%
  responders at 300 mg/kg: 25%
6 Hz psychomotor seizure; [7]
  ED50: 53 mg/kg
[3]; 0.5 h
  responders at 30 mg/kg: 75%
  responders at 100 mg/kg: 75%
  responders at 300 mg/kg: 100%
[3]; 2 h
  responders at 30 mg/kg: 0%
  responders at 100 mg/kg: 100%
  responders at 300 mg/kg: 100%
[3]
  ED50: 31 mg/kg
[4]; [8]
  ED50: 23 mg/kg
[4]
  MES-ED50: 28 mg/kg
[5]
  ED50: 369 mg/kg
[6]
  ED50: > 250 mg/kg
  scMet ED50: inactive
mice; 30 mg/kg, 0.5 h
  Tox (motor impairment or sedation), number of animals affected/number of animals tested: 0/8
mice; 30 mg/kg, 2.0 h
  Tox (motor impairment or sedation), number of animals affected/number of animals tested: 0/8
mice; 100 mg/kg, 0.5 h
  Tox (motor impairment or sedation), number of animals affected/number of animals tested: 0/8
mice; 100 mg/kg, 2.0 h
  Tox (motor impairment or sedation), number of animals affected/number of animals tested: 0/8
mice; 300 mg/kg, 0.5 h
  Tox (motor impairment or sedation), number of animals affected/number of animals tested: 0/8
mice; 300 mg/kg, 2.0 h
  Tox (motor impairment or sedation), number of animals affected/number of animals tested: 0/8

## CCC(C)CCOC(=O)Nc1ccc(S(N)(=O)=O)cc1 (stereo not shown) [Compound 10, 3-methylpentyl(4-sulfamoylphenyl)carbamate]
Corneal kindled mouse
  ED50: 59 mg/kg
SWV mice
  induction of neural tube defects relative to anticonvulsant effective dose (in words): induced neural tube defects only at doses markedly exceeding their effective dose
SWV mice; single i.p. 0.9 mmol/kg
  No. of fetuses with NTDs: 9
  No. of implants: 145
  No. of live fetuses: 116
  No. of resorptions: 29
  Fetal weight mean ± SD: 0.88 ± 0.03
  No. of live fetuses, figure in parentheses: 80%
  No. of resorptions, figure in parentheses: 20%
  No. of fetuses with NTDs, figure in parentheses: (7.8)*
SWV mice; single i.p. 1.8 mmol/kg
  No. of fetuses with NTDs: 17
  No. of implants: 108
  No. of live fetuses: 56
  No. of resorptions: 52
  Fetal weight mean ± SD: 0.87 ± 0.08
  No. of live fetuses, figure in parentheses: 51.9%
  No. of resorptions, figure in parentheses: 48.2%
  No. of fetuses with NTDs, figure in parentheses: (30.4)*
hCA VII
  Ki: 351 nM
other
  melting point: 168 to 169 °C
In vivo [1]
  TD50: 698 mg/kg
In vivo [2]; ip
  TD50: > 250 mg/kg
In vivo [2]; male, po
  TD50: > 500 mg/kg
6 Hz psychomotor seizure; 0.5 h
  responders at 30 mg/kg: 25%
  responders at 100 mg/kg: 75%
  responders at 300 mg/kg: 100%
6 Hz psychomotor seizure; 2 h
  responders at 30 mg/kg: 0%
  responders at 100 mg/kg: 50%
  responders at 300 mg/kg: 100%
6 Hz psychomotor seizure; read-out: 6 Hz (44 mA)-ED50, mice, i.p., 44 mA
  ED50: 88 mg/kg
6 Hz psychomotor seizure; [7]
  ED50: 80 mg/kg
[3]; 0.5 h
  responders at 30 mg/kg: 75%
  responders at 100 mg/kg: 100%
  responders at 300 mg/kg: 75%
[3]; 2 h
  responders at 30 mg/kg: 25%
  responders at 100 mg/kg: 100%
  responders at 300 mg/kg: 100%
[3]
  ED50: 14 mg/kg
[4]; ip, read-out: MES-ED50, rats, i.p.
  ED50: 13 mg/kg
[4]; [8]
  ED50: 28 mg/kg
[4]
  MES-ED50: 23 mg/kg
[5]
  ED50: 70 mg/kg
[6]
  ED50: > 250 mg/kg
  scMet ED50: inactive
mice; 30 mg/kg, 0.5 h
  Tox (motor impairment or sedation), number of animals affected/number of animals tested: 1/8
mice; 30 mg/kg, 2.0 h
  Tox (motor impairment or sedation), number of animals affected/number of animals tested: 0/8
mice; 100 mg/kg, 0.5 h
  Tox (motor impairment or sedation), number of animals affected/number of animals tested: 0/8
mice; 100 mg/kg, 2.0 h
  Tox (motor impairment or sedation), number of animals affected/number of animals tested: 0/8
mice; 300 mg/kg, 0.5 h
  Tox (motor impairment or sedation), number of animals affected/number of animals tested: 1/8
mice; 300 mg/kg, 2.0 h
  Tox (motor impairment or sedation), number of animals affected/number of animals tested: 0/8
